Several values for one entry are separate records, joined by “and”; a condition that tells them apart may be missing. Equal values may be shown once.
Test system: 435261-313-R-J1-PDC tumor spheroid viability
Test: Anticancer human tumor 435261-313-R-J1-PDC patient-derived colon adenocarcinoma cell line growth inhibition [PI3K]
Conditions: spheroids with HUVEC and MSC; for viability, T/C: stronger effect = lower value
Procedure, shortened: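 Multi-cell spheroids combine tumor cells with HUVEC and human MSCs, treated with targeted agents alone or with inavolisib, alpelisib, duvelisib or copanlisib. Concentrations fall in half-log steps from at or near clinical Cmax, or from 10 microM where Cmax is unknown; viability read-out.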

[1] = curve of first compound, second compound 0.00316 µM
[2] = curve of first compound, second compound 0.01 µM
[3] = curve of first compound, second compound 0.0316 µM
[4] = curve of first compound, second compound 0.1 µM
[5] = curve of first compound, second compound 0.316 µM
[6] = curve of first compound, second compound 1 µM
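Also: spheroids exposed to compounds for 7 days.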

What does the source list for `Cn1cnc2c(F)c(Nc3ccc(Br)cc3Cl)c(C(=O)NOCCO)cc21` + COc1c(OCCCN2CCOCC2)ccc2c3n(c(=NC(=O)c4cnc(N)nc4)nc12)CCN3?
IC50 [1]: < 9.49 nM; IC50 [2]: < 9.49 nM; IC50 [3]: < 9.49 nM; IC50 [4]: < 9.49 nM; IC50 [5]: < 9.49 nM; IC50 [6]: < 9.49 nM; viability, T/C (second compound 0.00316 µM, first compound 0.00949 µM): 29.7%; viability, T/C (second compound 0.00316 µM, first compound 0.03 µM): 25.4%; viability, T/C (second compound 0.00316 µM, first compound 0.0949 µM): 20.5%; viability, T/C (second compound 0.00316 µM, first compound 0.3 µM): 19%; viability, T/C (second compound 0.00316 µM, first compound 0.949 µM): 19.1%; viability, T/C (second compound 0.00316 µM, first compound 3 µM): 14.2%; viability, T/C (second compound 0.01 µM, first compound 0.00949 µM): 24.2%; viability, T/C (second compound 0.01 µM, first compound 0.03 µM): 20.6%; viability, T/C (second compound 0.01 µM, first compound 0.0949 µM): 22.4%; viability, T/C (second compound 0.01 µM, first compound 0.3 µM): 17.8%; viability, T/C (second compound 0.01 µM, first compound 0.949 µM): 16.4%; viability, T/C (second compound 0.01 µM, first compound 3 µM): 9.17%; viability, T/C (second compound 0.0316 µM, first compound 0.00949 µM): 30.9%; viability, T/C (second compound 0.0316 µM, first compound 0.03 µM): 16.9%; viability, T/C (second compound 0.0316 µM, first compound 0.0949 µM): 14.4%; viability, T/C (second compound 0.0316 µM, first compound 0.3 µM): 11.1%; viability, T/C (second compound 0.0316 µM, first compound 0.949 µM): 11.4%; viability, T/C (second compound 0.0316 µM, first compound 3 µM): 3.71%; viability, T/C (second compound 0.1 µM, first compound 0.00949 µM): 8.18%; viability, T/C (second compound 0.1 µM, first compound 0.03 µM): 7.27%; viability, T/C (second compound 0.1 µM, first compound 0.0949 µM): 7.24%; viability, T/C (second compound 0.1 µM, first compound 0.3 µM): 6.07%; viability, T/C (second compound 0.1 µM, first compound 0.949 µM): 3.14%; viability, T/C (second compound 0.1 µM, first compound 3 µM): 0.52%; viability, T/C (second compound 0.316 µM, first compound 0.00949 µM): 2.98%; viability, T/C (second compound 0.316 µM, first compound 0.03 µM): 2.65%; viability, T/C (second compound 0.316 µM, first compound 0.0949 µM): 1.65%; viability, T/C (second compound 0.316 µM, first compound 0.3 µM): 0.71%; viability, T/C (second compound 0.316 µM, first compound 0.949 µM): 0.32%; viability, T/C (second compound 0.316 µM, first compound 3 µM): 0.75%; viability, T/C (second compound 1 µM, first compound 0.00949 µM): 0.94%; viability, T/C (second compound 1 µM, first compound 0.03 µM): 0.62%; viability, T/C (second compound 1 µM, first compound 0.0949 µM): 0.53%; viability, T/C (second compound 1 µM, first compound 0.3 µM): 0.36%; viability, T/C (second compound 1 µM, first compound 0.949 µM): 0.26%; viability, T/C (second compound 1 µM, first compound 3 µM): 0.49%

`C[C@@H](NC(=O)c1ncnc(N)c1Cl)c1ncc(C(=O)Nc2cc(C(F)(F)F)c(Cl)cn2)s1` + COc1c(OCCCN2CCOCC2)ccc2c3n(c(=NC(=O)c4cnc(N)nc4)nc12)CCN3 was tested. Which IC50 [1] did it give?
Its IC50 is > 10000 nM.

What about the IC50 [2] of the same compound?
The IC50 was > 10000 nM.

And the IC50 [3]?
The IC50 was < 31.6 nM.

What about the IC50 [4] of the same compound?
The IC50 was < 31.6 nM.

What about the IC50 [5] of the same compound?
Its IC50 is < 31.6 nM.

And the IC50 [6]?
The IC50 was < 31.6 nM.

And the viability, T/C (second compound 0.00316 µM, first compound 0.0316 µM)?
The viability, T/C was 133%.

And the viability, T/C (second compound 0.00316 µM, first compound 0.1 µM)?
Its viability, T/C is 138%.

What about the viability, T/C (second compound 0.00316 µM, first compound 0.316 µM) of the same compound?
The viability, T/C was 70%.

What about the viability, T/C (second compound 0.00316 µM, first compound 1 µM) of the same compound?
The viability, T/C was 120%.

What about the viability, T/C (second compound 0.00316 µM, first compound 3.16 µM) of the same compound?
The viability, T/C was 99.2%.

What about the viability, T/C (second compound 0.00316 µM, first compound 10 µM) of the same compound?
The viability, T/C was 78.6%.

What about the viability, T/C (second compound 0.01 µM, first compound 0.0316 µM) of the same compound?
Its viability, T/C is 66.2%.

And the viability, T/C (second compound 0.01 µM, first compound 0.1 µM)?
Its viability, T/C is 70.4%.

And the viability, T/C (second compound 0.01 µM, first compound 0.316 µM)?
Its viability, T/C is 69.8%.

What about the viability, T/C (second compound 0.01 µM, first compound 1 µM) of the same compound?
The viability, T/C was 103%.

And the viability, T/C (second compound 0.01 µM, first compound 3.16 µM)?
Its viability, T/C is 63.3%.

And the viability, T/C (second compound 0.01 µM, first compound 10 µM)?
The viability, T/C was 53.2%.

What about the viability, T/C (second compound 0.0316 µM, first compound 0.0316 µM) of the same compound?
The viability, T/C was 32.7%.

What about the viability, T/C (second compound 0.0316 µM, first compound 0.1 µM) of the same compound?
Its viability, T/C is 33.6%.

And the viability, T/C (second compound 0.0316 µM, first compound 0.316 µM)?
The viability, T/C was 47.5%.

And the viability, T/C (second compound 0.0316 µM, first compound 1 µM)?
Its viability, T/C is 30.1%.

And the viability, T/C (second compound 0.0316 µM, first compound 3.16 µM)?
Its viability, T/C is 37.8%.

What about the viability, T/C (second compound 0.0316 µM, first compound 10 µM) of the same compound?
The viability, T/C was 17.5%.

And the viability, T/C (second compound 0.1 µM, first compound 0.0316 µM)?
Its viability, T/C is 20.4%.

What about the viability, T/C (second compound 0.1 µM, first compound 0.1 µM) of the same compound?
Its viability, T/C is 21.7%.

What about the viability, T/C (second compound 0.1 µM, first compound 0.316 µM) of the same compound?
Its viability, T/C is 22%.

And the viability, T/C (second compound 0.1 µM, first compound 1 µM)?
The viability, T/C was 19.5%.

And the viability, T/C (second compound 0.1 µM, first compound 3.16 µM)?
The viability, T/C was 18.2%.

And the viability, T/C (second compound 0.1 µM, first compound 10 µM)?
Its viability, T/C is 8.2%.

What about the viability, T/C (second compound 0.316 µM, first compound 0.0316 µM) of the same compound?
Its viability, T/C is 10.8%.

And the viability, T/C (second compound 0.316 µM, first compound 0.1 µM)?
The viability, T/C was 13.1%.

And the viability, T/C (second compound 0.316 µM, first compound 0.316 µM)?
Its viability, T/C is 12.2%.

And the viability, T/C (second compound 0.316 µM, first compound 1 µM)?
Its viability, T/C is 13.3%.

And the viability, T/C (second compound 0.316 µM, first compound 3.16 µM)?
The viability, T/C was 10.5%.

What about the viability, T/C (second compound 0.316 µM, first compound 10 µM) of the same compound?
The viability, T/C was 3.91%.

And the viability, T/C (second compound 1 µM, first compound 0.0316 µM)?
The viability, T/C was 5.11%.

What about the viability, T/C (second compound 1 µM, first compound 0.1 µM) of the same compound?
The viability, T/C was 6.44%.

What about the viability, T/C (second compound 1 µM, first compound 0.316 µM) of the same compound?
The viability, T/C was 7.13%.

What about the viability, T/C (second compound 1 µM, first compound 1 µM) of the same compound?
Its viability, T/C is 7.09%.

And the viability, T/C (second compound 1 µM, first compound 3.16 µM)?
Its viability, T/C is 5.4%.

And the viability, T/C (second compound 1 µM, first compound 10 µM)?
Its viability, T/C is 2.3%.

For `C[C@@H](NC(=O)c1ncnc(N)c1Cl)c1ncc(C(=O)Nc2cc(C(F)(F)F)c(Cl)cn2)s1`, which viability, T/C (compound 0.0316 µM) is on record?
The viability, T/C was 133% and 131% and 118%.

What about the viability, T/C (compound 0.1 µM) of the same compound?
Its viability, T/C is 127% and 106% and 111%.

And the viability, T/C (compound 0.316 µM)?
Its viability, T/C is 154% and 79.3% and 153%.

And the viability, T/C (compound 1 µM)?
Its viability, T/C is 151% and 130% and 124%.

And the viability, T/C (compound 3.16 µM)?
Its viability, T/C is 146% and 120% and 129%.

And the viability, T/C (compound 10 µM)?
Its viability, T/C is 120% and 114% and 88.1%.

What about the IC50 (curve of compound) of the same compound?
Its IC50 is > 10000 nM.

From PubChem BioAssay AID1963976 (Molecular Pharmacology Branch, DTP, NCI, 2024)
